The source of these data is patent publication US20230167437A1, “COMPOSITIONS FOR TREATING CANCER WITH KRAS MUTATIONS AND USES THEREOF” (Aadigen, LLC, priority 2020, published 2023).

Data set [1] relates to SW403 tumor (Human colorectal cancer, 35G>T). The data set is described as follows: SW403 tumor growth in vivo, combination with Capecitabine. Also on record: species or system mice. The note with it: Capecitabine 200 μg once a week. Here is the method: It was also evaluated whether targeting mutant KRAS in combination with a chemotherapeutic agent can suppress tumor growth in vivo when administered intravenously using ADGN-100-Hy3 nanoparticles. Female nude mice 6-weeks of age were injected with either Human pancreatic carcinoma cell (Panc1-Luc) containing the 35G>A mutation, or Human colorectal cancer cells (SW403) containing 35G>T KRAS mutation (20×10^6 cells in 200 μl PBS). The animals were kept under pathogen-free conditions and fed and watered ad libitum, in cages of 2 to 4 animals (in compliance with recommended area surface/animal), in a dedicated room with a 12 h/12 h light/dark cycle at a constant temperature of 22° C. A period of 2 weeks was allowed for tumor development before the beginning of the experiments […]
Animal were injected ADGN/mRNA complex on day 1 and day 7. […] PANC-1 tumor size was evaluated by bioluminescence imaging. […] Semi-quantitative data of luciferase-positive tumor cell signals were obtained using the manufacturer's software (Living Image; PerkinElmer). Results were expressed as photons/second (photons/s). […] Results were then expressed as values relative to day 0. SW403 tumor size was evaluated every 7 days using caliper. Results were then expressed as values relative to day 0. […]

A further data set has as its system KRAS 35G>T mutant G12V. The data set can be described thus: Indel frequencies at the endogenous target sequences (T7E1 / deep sequencing) after ADGN/Cas9 mRNA/gRNA transfection. In kind it is cell-based, human. The note with it: for indel frequencies: deep sequencing, 72 hours after transfection, Cas9 mRNA 0.15 μg, gRNA 0.2 μg, ADGN-100. The method, then:
(§1) Complex formation with mRNA:gRNA: ADGN peptide/mRNA/gRNA particles were prepared at a 20:1:1 molar ratio. ADGN/Cas9mRNA/sgRNA complexes were prepared at a 20/1/1 molar ratio with 0.5 μg mRNA: 1.5 μg sgRNA and 5% Glucose or DMEM (example for 96 well plates). […] Premixed Cas9 mRNA/gRNA were prepared in sterile water at room temperature in a glass vial (1-4 ml). ADGN-peptide solution was added dropwise (1 drop/sec) under magnetic agitation at 400 rpm to obtain a 1:2 ratio, and incubated for 30 min at room temperature or 37° C. Just before transfection, 150 μl Glucose or DMEM was added and the solution was mixed under magnetic agitation at 400 rpm for 1 minute. Then the solution was incubated for 5 min at 37° C. Then the complexes was ready for cell transfection or IV administration. Prior to IV administration, complexes were diluted in sucrose 5% solution.
(§2) Transfection protocol. The following protocols are reported for 24/48/96 well plate format transfection. Cells should be trypsinized and seeded a day prior transfection Cells were cultured in Dulbecco's Modified Eagle's Medium (DMEM), supplemented with 2 mM glutamine, 1% antibiotics (streptomycin 10,000 μg/mL, penicillin, 10,000 IU/mL) and 10% (w/v) foetal calf serum (FCS), at 37° C. in a humidified atmosphere containing 5% CO2. 96 well plates seeded with 50,000 cells, the day prior transfection, grown to 60-80% confluence and set up to be at around 70% confluence at the day of transfection. Before transfection, cells are washed twice with DMEM (without FBS and pen/strep) (100 μl/well). Cells were then overlaid with 25 μl of complex solution, mixed gently and incubated for 10 min at 37° C.+5% CO2. 50 μl of fresh DMEM (without FBS and Antibiotics) was added and cells were incubated for 2 h at 37° C.+5% CO2 (time of exposure can be adjusted based on sensitivity of the cells). 250 μL of DMEM (containing 10% FCS and 1% antibiotics) were then added without removing the overlay of ADGN peptide/mRNA complexes. Cells were returned to the incubator (37° C., 5% CO2) and analyzed 48 hours to 72 hours post transfection.
(§3) Nine different gRNAs targeting KRAS 35G>T mutant G12V (gRNA35T1, gRNA35T2, gRNA35T3, gRNA35T4, gRNA35T5, gRNA35T6, gRNA35T7, gRNA35T8 and gRNA35T9 (see FIG. 18)) were evaluated on SW403 and SW480 cancer cells harboring G12V KRAS mutation. Cas9 mRNA (0.15 μg) and gRNA (0.2 μg) were associated with ADGN-peptides as reported in experimental procedure. SW403, SW480 and HT-29 cells were cultured in 48 well plate format and treated with free mRNACas9-gRNA, or ADGN-100/mRNACas9:gRNA complex. Indel frequencies at the endogenous target sequences was evaluated 72 hours after transfection by either T7E1 method and by deep sequencing. Cell proliferation was analyzed over a period of 5 days using CellTiter Glow kits on GlowMax (Promega).
(§4) In order to confirm the specificity of sgRNAs targeting G12V, G12C or G12D KRAS mutation, gRNA35T3 targeting G12V, gRNA34T6 targeting G12C, and gRNA35A5 targeting G12D were evaluated on a large panel of cancer cells harboring different KRAS mutations including SW403, SW480, PANC1, PK-45H, PK-1, MIA-PACA, H23, H358, HT-29, HS-68 and LS513. Cas9 mRNA (0.2 μg) and gRNA (0.4 μg) were associated with ADGN peptide at molar ratio 20/1 (peptide/nucleic acid). Cells were cultured in 48 well plate format and treated with free mRNACas9-gRNA, or ADGN/mRNACas9:gRNA complex. Indel frequencies at the endogenous target sequences was evaluated 72 hours after transfection by either T7E1 method and cell proliferation was analyzed over a period of 5 days using CellTiter Glow kits on GlowMax (Promega).

The next data set deals with wild type KRAS. The description is as above. In kind it is cell-based, human. The note with it: HT29 cells. The method, then: as §1, §2, §3
Nine different gRNAs targeting KRAS 35G>A mutant G12D (gRNA35A1, gRNA35A2, gRNA35A3, gRNA35A4, gRNA35A5, gRNA35A6; gRNA35A7, gRNA35A8, gRNA35A9) were evaluated on LS513, Panc1, PK-45H, and PK1 cancer cells harboring G12D KRAS mutation. Cas9 mRNA (0.1 μg) and gRNA (0.2 μg) were associated with ADGN-peptide at molar ratio 20/1 (peptide/nucleic acid). LS513, Panc1, PK-45H, PK1, HS-68 and HT-29 cells were cultured in 48 well plate format and treated with free mRNACas9-gRNA, or ADGN/mRNACas9:gRNA complex. Indel frequencies at the endogenous target sequences was evaluated 72 hours after transfection by either T7E1 method or deep sequencing. Cell proliferation was analyzed over a period of 5 days using CellTiter Glow kits on GlowMax (Promega).

The next data set relates to HT-29 cells. The data set is described as follows: Cell proliferation over 5 days (CellTiter Glow). The settings on record: KRAS WT cells. In kind it is cell-based, human. Here is the method:
as §2, §3

The subject of the next data set is SW403 and SW480 cells. The data set can be described thus: Cell proliferation over 5 days (CellTiter Glow). In kind it is cell-based, human. Here is the method: as §2, §3
(Cellular ATP, detected with luciferase, serves as a proxy for viable cell number.)

Data set [2] relates to G12V, G12D, G12C KRAS mutant cells and WT KRAS cells. The data set is described as follows: Specificity of lead sgRNAs on a large panel of cancer cells harboring different KRAS mutations (indel, proliferation). The note with it: Cas9 mRNA 0.2 μg, gRNA 0.4 μg. In kind it is cell-based, human. The method, then:
as §4

The next data set concerns phospho-Akt (Ser 473). The data set can be described thus: Western blot of KRAS downstream signaling 48 h post transfection. In kind it is cell-based, human. The settings on record: SW403 cells. The method, then: (§5) In order to verify the specific effect of your lead sgRNA targeting G12V and G12D KRAS mutation, gRNA35A5 G12D and gRNA35T3 G12V on KRAS signal transduction pathway in PANC-1 and SW403 cells, we measured the levels of downstream signaling proteins that are activated by KRAS. We specifically looked for changes in key signaling pathways, such as mitogen-activated protein kinase (MAPK) or PI3K/Akt, which are known to be the major effector pathways of KRAS activation. Cas9 mRNA (0.2 μg) and gRNA (0.2 μg or 0.5 μg) were associated with ADGN peptide at molar ratio 20/1 (peptide/nucleic acid). PANC1 and SW403 cells were cultured in 48 well plate format and treated with free mRNACas9-gRNA, or ADGN/mRNACas9:gRNA complex. Levels of Erk and Akt phosphorylation were measured 48 h post transfection by western blot using phospho-Akt (Ser 473) (CST, #9271, RRID:AB_329825) and phospho-p44/42 MAPK (Erk1/2) (Thr202/Tyr204) (CST, #4370, RRID:AB_2315112).
Background: A western blot detects proteins with antibodies after separation by electrophoresis.

For data set [3], the system named is phospho-p44/42 MAPK (Erk1/2) (Thr202/Tyr204). Described as above. In kind it is cell-based, human. The note with it: SW403 cells. Here is the method:
as §5

Another data set deals with pERK. The data set is described as follows: Downstream signaling proteins quantified by ELISA on tumors. In kind it is in vivo, mice. The settings on record: SW403 tumors. The method, then: The specificity of gRNA35A5 G12D and gRNA35T3 G12V for their targets in PANC-1 and SW403 tumors cells, have been analyzed. Female nude mice 6-weeks of age were injected with either Human pancreatic carcinoma cell (Panc1-Luc) containing the 35G>A mutation or Human colorectal cancer cells (SW403) containing 35G>T KRAS mutation (20×10^6 cells in 200 μl PBS). A period of 2 weeks was allowed for tumor development before the beginning of the experiments.
Animal were injected on day 1 and day 7. Mice received IV injection of 100 μl ADGN/mRNA complex in 5% glucose. At Day 50, animals were sacrificed and tissues/tumors were harvested. At Day 50 post treatment, level of expression of housekeeping genes; glyceraldehyde-3-phosphate dehydrogenase (GAPDH), HPRT-1 and mitochondrial ATP synthase 6 (mATPsy6) was evaluated by PCR in the tumor, liver, spleen and lung.
We analyzed the level of KRAS G12D or KRAS G12V gene editing by deep sequencing in PANC1 (FIG. 14A) and SW403 (FIG. 14B) tumors, respectively. […] The level of downstream signaling proteins (pAKT and pERK) were quantified by ELISA on PANC1 and SW403 tumors. […] Given that targeting KRAS using Cas9/sgRNA can induce various secondary mutations at or near the target sites, deep sequencing shown similar level of secondary oncogenic mutations (G12D, G12V, G12C, G13D, G12R, G12A, and G12S) in KRAS-mutant cancer cells (SW403/PANC-1) or cells containing wild-type KRAS (HT29) either in vitro or in vivo.
On the technique in general: ELISA stands for enzyme-linked immunosorbent assay.

[4] abbreviates: SW403 cells (heterozygous 35G>T).

As for `CCCCCOC(=O)Nc1nc(=O)n([C@@H]2O[C@H](C)[C@@H](O)[C@H]2O)cc1F` [Capecitabine], the “reduction of SW403 tumor growth” value in data set [1] amounted to 38%.
Turning to “AGC TGT TGG CGT AGG CAA (guide AGCTGTTGGCGTAGGCAA; chemistry not given here) [gRNA35T4, sgRNA target KRAS G12V mutation (c.35G>T); PAM GAG]”, the indel frequencies in the data set with KRAS 35G>T mutant G12V (setting [4]) came to 22%; in the data set with KRAS 35G>T mutant G12V (SW480 cells (homozygous 35G>T)), 41%. In addition, the “disruption of WT KRAS” value in the data set with wild type KRAS is reported as “also induced disruption of WT KRAS in HT29 cells”. Further, the HT-29 proliferation result with HT-29 cells is on record as “altered also HT-29 proliferation”.
For “GGTAGTTGGAGCTGTTGGCG (guide GGTAGTTGGAGCTGTTGGCG; chemistry not given here) [gRNA35T3, sgRNA target KRAS G12V mutation (c.35G>T); PAM TAG]”, the indel frequency with KRAS 35G>T mutant G12V (KRAS G12V mutated cancer cells) is recorded as more than 70%; in the data set with KRAS 35G>T mutant G12V (SW403 and SW480 cells, T7E1, 72 hours, Cas9 mRNA 0.2 μg, gRNA 0.4 μg), more than 65%. Moreover, the “indel editing and disruption of G12V mutant KRAS (FIG. 1A)” value in the data set with KRAS 35G>T mutant G12V (SW403, SW480 vs wild type KRAS HT29 cells, T7E1) was “specifically induced indel editing and efficient disruption”. Besides, the indel frequencies was determined as 65% in the data set on KRAS 35G>T mutant G12V (setting [4]) and 81% in the data set with KRAS 35G>T mutant G12V (SW480 cells (homozygous 35G>T)). Moreover, the “fold more efficient than gRNA35T6 (cell proliferation)” value with SW403 and SW480 cells (SW403 and SW480 cells) turned out to be 2 fold. The “fold more efficient than gRNA35T8 (cell proliferation)” value in the data set with SW403 and SW480 cells (SW403 and SW480 cells) is listed as 1.5 fold. For the same compound, the cell proliferation blocked in the data set on SW403 and SW480 cells (SW403 and SW480 cells, 5 days) stood at 75%. Further, the “inhibition of proliferation or survival (FIG. 1B)” value with SW403 and SW480 cells (SW480 and SW403 cells vs HT29 cells harboring KRAS WT) is “specifically inhibit proliferation or survival of SW480 and SW403 cells”. Besides, in [2], the “effect on non-targeted KRAS mutant cells and WT KRAS cells (FIGS. 4A-4B)” value is “does not alter G12D and G12C KRAS mutant cells or WT KRAS cells”. In the data set with phospho-Akt (Ser 473), the Akt phosphorylation result is listed as “poorly”. The “level of p-Erk” value in [3] is on record as “significantly affected”. Moreover, the “level of p-ERK” value in the data set on pERK is listed as “significantly affected”.
